Source: patent US8912173B2, “Substituted quinolines and their use as medicaments” (Boehringer Ingelheim International GmbH, priority 2011, dated 2014)
Like-named read-outs stand apart in the source and are kept apart here.

What was measured:
[1] = molecular target: Recombinant human Syk (amino acids 342-635), GST-Syk kinase fusion protein (Homo sapiens (Human), UniProt P43405); assay: Syk Kinase Test (Kinase Glo Luminescence Kinase test)
Experimental: The catalytic activity of the GST-Syk kinase fusion protein was determined using the Kinase Glo® Luminescence Kinase test (Promega; V6712). In this homogeneous test the amount of ATP remaining after the kinase reaction is quantified by a luciferin-luciferase reaction using luminescence. The luminescence signal obtained correlates with the amount of ATP still present and thus correlates inversely with the activity of the protein kinase.
GST-Syk was diluted to 6.0 nM in the test buffer and 10 μl of this dilution were used in the kinase test (final concentration of Syk=4 nM in a total volume of 15 μl).
Positive controls are the reaction mixtures that contain no test substance; negative controls (blanks) are reaction mixtures that contain no kinase.
After 60 minutes, 10 μl Kinase-Glo® solution (Promega, Cat. #V6712) (heated to room temperature) were added to each well and incubation was continued for a further 15 minutes. The plates were read in a Microplate Scintillation and Luminescence Counter (Canberra Packard GmbH).
Data Evaluation and Calculation:
The output file of the “Counter” is a text file that contains the well number and measured counts in two columns. […] Based on this values the % inherent value for the measurement of each substance concentration was calculated using an “MS-Excel-VB macro”. […] The IC50 values were calculated from the % inhibition values using “GraphPadPrism” software (Version 5) (GraphPad Software Inc.).

[2] = tested on: patients with ITP; settings: single center open label study; cited from earlier work
[3] = read-out: IC50-value (+0.2% HSA in μM), +0.2% HSA

SMILES	IC50 [1, 3] [µM]	other results
Cc1nc2cc(-c3cc(O[C@H](C)[C@H]4CNC(=O)C4)c4cccnc4c3)ccc2[nH]1 [Example 109, (R)-4-((R)-1-(7-(2-methyl-1H-benzo[d]imidazol-5-yl)quinolin-5-yloxy)ethyl)pyrrolidin-2-one]	0.0004	
COc1cc(Nc2ncc(F)c(Nc3ccc4c(n3)N(COP(=O)(O)O)C(=O)C(C)(C)O4)n2)cc(OC)c1OC [Example R788]		platelet counts [2]: improved platelet counts
COc1cc(-c2cc(O[C@H](C)[C@H]3CNC(=O)C3)c3cccnc3c2)ccc1C(F)(F)F [Example 102, (R)-4-((R)-1-(7-(3-methoxy-4-(trifluoromethyl)phenyl)quinolin-5-yloxy)ethyl)pyrrolidin-2-one]	0.0045	
Cc1c(-c2cc(O[C@H](C)[C@H]3CNC(=O)C3)c3cccnc3c2)cnn1C [Example 112, (R)-4-((R)-1-(7-(1,5-dimethyl-1H-pyrazol-4-yl)quinolin-5-yloxy)ethyl)pyrrolidin-2-one]	0.0012	
C[C@@H](Oc1cc(-c2ccc3c(c2)CNCC3)cc2ncccc12)[C@H]1CNC(=O)C1 [Example 101, (R)-4-((R)-1-(7-(1,2,3,4-tetrahydroisoquinolin-7-yl)quinolin-5-yloxy)ethyl)pyrrolidin-2-one]	0.0004	
C[C@@H](Oc1cc(-c2ccccn2)cc2ncccc12)[C@H]1CNC(=O)C1 [Example 6, (R)-4-((R)-1-(7-(pyridin-2-yl)quinolin-5-yloxy)ethyl)pyrrolidin-2-one]		IC50 ([1]; read-out: IC50-value (+0.2% BSA in μM), +0.2% BSA): 0.0017 µM

More lines, in order of falling IC50 [1, 3], values ahead:

IC50 [1, 3] [µM]	SMILES	other results
0.0003	C[C@@H](Oc1cc(-c2ccc3c(c2)ncn3C)cc2ncccc12)[C@H]1CNC(=O)C1 [Example 94, (R)-4-((R)-1-(7-(1-methyl-1H-benzo[d]imidazol-5-yl)quinolin-5-yloxy)ethyl)pyrrolidin-2-one]	
0.0002	Cc1nc2cc(-c3cc(O[C@H](C)[C@H]4CNC(=O)C4)c4cccnc4c3)ccc2n1C [Example 105, (R)-4-((R)-1-(7-(1,2-dimethyl-1H-benzo[d]imidazol-5-yl)quinolin-5-yloxy)ethyl)pyrrolidin-2-one]	
0.0002	Cc1nc2ccc(-c3cc(O[C@H](C)[C@H]4CNC(=O)C4)c4cccnc4c3)cc2s1 [Example 85, (R)-4-((R)-1-(7-(2-methylbenzo[d]thiazol-6-yl)quinolin-5-yloxy)ethyl)pyrrolidin-2-one]	
